Test results: ChEMBL document CHEMBL1201862, “PubChem BioAssay data set” (2004)
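Results reflect a 48-hour exposure of cells in 96-well plates to compound at five concentrations. Abbreviation: GI50, concentration required for 50% inhibition of growth.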 Activity calls are given as the source filed them. Cut-off read from the data, not from the text of the source: active = GI50 up to about 1.1 µM and inactive = higher.

What was measured:
Experiment in all cases: inhibition of tumour cell growth, NCI panel, 48 h
U-251 = tested on: U-251
OVCAR-3 = tested on: OVCAR-3
SNB-78 = tested on: SNB-78
MOLT-4 = tested on: MOLT-4
MCF7 = tested on: MCF7
HCT-116 = tested on: HCT-116
OVCAR-8 = tested on: OVCAR-8
NCI-H23 = tested on: NCI-H23
OVCAR-4 = tested on: OVCAR-4
HL-60 = tested on: HL-60
MDA-MB-231 = tested on: MDA-MB-231
SK-MEL-28 = tested on: SK-MEL-28
SF-539 = tested on: SF-539
A498 = tested on: A498
SK-MEL-5 = tested on: SK-MEL-5
Malme-3M = tested on: Malme-3M
A549 = tested on: A549
PC-3 = tested on: PC-3
HT-29 = tested on: HT-29
LXFL 529 = tested on: LXFL 529

Compound | GI50 (U-251) | GI50 (OVCAR-3) | GI50 (SNB-78) | GI50 (MOLT-4) | GI50 (MCF7) | GI50 (HCT-116) | GI50 (OVCAR-8) | GI50 (NCI-H23) | GI50 (OVCAR-4) | GI50 (HL-60) | GI50 (MDA-MB-231) | GI50 (SK-MEL-28) | GI50 (SF-539) | GI50 (A498) | GI50 (SK-MEL-5) | GI50 (Malme-3M) | GI50 (A549) | GI50 (PC-3) | GI50 (HT-29) | GI50 (LXFL 529)
COc1cccc2c1C(=O)c1c(O)c3c(c(O)c1C2=O)C[C@@](O)(/C(C)=N/NC(=O)c1ccccc1)C[C@@H]3OC1CC(N)C(O)C(C)O1 (stereo not given in full) | 0.147 µM (active) | 0.624 µM (active) | 0.658 µM (active) | 0.0324 µM (active) | 0.0467 µM (active) | 0.19 µM (active) | 0.283 µM (active) | 0.201 µM (active) | 1.17 µM (inactive) | 0.0604 µM (active) | 0.49 µM (active) | 0.973 µM (active) | 0.261 µM (active) | 0.51 µM (active) | 0.161 µM (active) | 0.213 µM (active) | 0.206 µM (active) | 0.171 µM (active) | 0.589 µM (active) | –
CC1C[C@]2(C[C@@H](C)C(=O)O2)O[C@@H]2CC3(C)[C@@H]4CCC5C(C)(C)OC(=O)C[C@H]6OO[C@]4(CC[C@]3(C)C12)CC56O (stereo not given in full) | > 100 µM (inactive) | > 100 µM (inactive) | > 100 µM (inactive) | – | – | – | > 100 µM (inactive) | > 100 µM (inactive) | > 100 µM (inactive) | > 100 µM (inactive) | – | > 100 µM (inactive) | > 100 µM (inactive) | – | > 100 µM (inactive) | > 100 µM (inactive) | > 100 µM (inactive) | – | > 100 µM (inactive) | > 100 µM (inactive)
CC(C1=CC=C2[C@@H]3CCC4CC(N(C)C)CC[C@]4(C)C3CC[C@]12C)N(C)C=O (stereo not given in full) | > 100 µM (inactive) | > 100 µM (inactive) | – | > 100 µM (inactive) | – | > 100 µM (inactive) | > 100 µM (inactive) | > 100 µM (inactive) | > 100 µM (inactive) | > 100 µM (inactive) | – | > 100 µM (inactive) | > 100 µM (inactive) | 6.49 µM (inactive) | > 100 µM (inactive) | > 100 µM (inactive) | > 100 µM (inactive) | – | 25.3 µM (inactive) | > 100 µM (inactive)
CC1=C(C(=O)Nc2ccc([N+](=O)[O-])cc2)C(c2ccccc2F)C(C(=O)Nc2ccc([N+](=O)[O-])cc2)=C(C)N1 | 14.9 µM (inactive) | 8.32 µM (inactive) | – | 3.61 µM (inactive) | – | 5.13 µM (inactive) | 21.7 µM (inactive) | 11.2 µM (inactive) | 9.14 µM (inactive) | 4.7 µM (inactive) | – | 20.7 µM (inactive) | 17.3 µM (inactive) | 5.48 µM (inactive) | 13.9 µM (inactive) | 13.7 µM (inactive) | 9.64 µM (inactive) | – | 20.1 µM (inactive) | 6.92 µM (inactive)
COc1ccc(NC(=O)/C(=N/O)C(C)=O)cc1 | > 100 µM (inactive) | – | > 100 µM (inactive) | > 100 µM (inactive) | – | 96.8 µM (inactive) | > 100 µM (inactive) | > 100 µM (inactive) | – | > 100 µM (inactive) | – | > 100 µM (inactive) | > 100 µM (inactive) | > 100 µM (inactive) | > 100 µM (inactive) | > 100 µM (inactive) | > 100 µM (inactive) | – | > 100 µM (inactive) | > 100 µM (inactive)
CCC1CN2CCc3cc(OC)c(OC)cc3C2CC1CC1c2cc(OC)c(OC)cc2CCN1C(=O)CNC(=O)OC(C)(C)C (stereo not given) | 5.51 µM (inactive) | 11.9 µM (inactive) | 20.5 µM (inactive) | 3.44 µM (inactive) | – | – | 5.64 µM (inactive) | 21.4 µM (inactive) | 2.88 µM (inactive) | 4.14 µM (inactive) | – | 23.8 µM (inactive) | – | 32.3 µM (inactive) | 6 µM (inactive) | 19.5 µM (inactive) | 4.57 µM (inactive) | – | 3.49 µM (inactive) | 10.9 µM (inactive)
Nc1nc(SCCC/C=C/I)nc2c1ncn2C1OC(CO)C(O)C1O (stereo not given) | > 202 µM (inactive) | > 202 µM (inactive) | > 202 µM (inactive) | 99.5 µM (inactive) | – | > 202 µM (inactive) | > 202 µM (inactive) | > 202 µM (inactive) | > 202 µM (inactive) | > 202 µM (inactive) | – | > 202 µM (inactive) | > 202 µM (inactive) | > 202 µM (inactive) | > 202 µM (inactive) | > 202 µM (inactive) | > 202 µM (inactive) | – | > 202 µM (inactive) | –
C#Cc1c(C)c(/C=C/C(C)=C\C(=O)OC)n(C)c1C | > 100 µM (inactive) | 96.2 µM (inactive) | > 100 µM (inactive) | 7.06 µM (inactive) | – | – | 70.1 µM (inactive) | > 100 µM (inactive) | 75.9 µM (inactive) | 6.65 µM (inactive) | – | – | 67.5 µM (inactive) | 81.3 µM (inactive) | – | > 100 µM (inactive) | > 100 µM (inactive) | – | 28.6 µM (inactive) | 94 µM (inactive)
COc1ccc(/C=C2\C(=O)N(C(=O)Cc3ccccc3)N=C2C)cc1OC | – | > 100 µM (inactive) | > 100 µM (inactive) | > 100 µM (inactive) | – | > 100 µM (inactive) | > 100 µM (inactive) | > 100 µM (inactive) | > 100 µM (inactive) | > 100 µM (inactive) | – | > 100 µM (inactive) | > 100 µM (inactive) | – | – | > 100 µM (inactive) | > 100 µM (inactive) | – | > 100 µM (inactive) | –
O=C1OC(=O)c2c1c(-c1ccccc1)nc1ccccc21 | > 100 µM (inactive) | > 100 µM (inactive) | > 100 µM (inactive) | > 100 µM (inactive) | – | > 100 µM (inactive) | > 100 µM (inactive) | > 100 µM (inactive) | – | > 100 µM (inactive) | – | > 100 µM (inactive) | > 100 µM (inactive) | > 100 µM (inactive) | > 100 µM (inactive) | > 100 µM (inactive) | > 100 µM (inactive) | – | > 100 µM (inactive) | > 100 µM (inactive)
NNC(=S)N/N=C(/C(=O)Nc1ccc([N+](=O)[O-])cc1)c1nc2ccc([N+](=O)[O-])cc2nc1O | > 100 µM (inactive) | – | > 100 µM (inactive) | > 100 µM (inactive) | – | > 100 µM (inactive) | > 100 µM (inactive) | > 100 µM (inactive) | > 100 µM (inactive) | 52.8 µM (inactive) | – | > 100 µM (inactive) | > 100 µM (inactive) | > 100 µM (inactive) | 45.5 µM (inactive) | > 100 µM (inactive) | > 100 µM (inactive) | – | > 100 µM (inactive) | –
Cc1cccc2c1Sc1ccccc1C2NC(=O)CCN(C)C (stereo not given) | > 100 µM (inactive) | – | > 100 µM (inactive) | > 100 µM (inactive) | – | > 100 µM (inactive) | > 100 µM (inactive) | > 100 µM (inactive) | > 100 µM (inactive) | > 100 µM (inactive) | – | > 100 µM (inactive) | > 100 µM (inactive) | – | > 100 µM (inactive) | – | > 100 µM (inactive) | – | > 100 µM (inactive) | > 100 µM (inactive)
COC(=O)c1sc(=NC(=S)N2CCCCC2)sc1C(=O)OC | 32.4 µM (inactive) | 3.01 µM (inactive) | > 100 µM (inactive) | > 100 µM (inactive) | – | > 100 µM (inactive) | > 100 µM (inactive) | – | > 100 µM (inactive) | > 100 µM (inactive) | – | > 100 µM (inactive) | > 100 µM (inactive) | > 100 µM (inactive) | 80.9 µM (inactive) | > 100 µM (inactive) | – | – | – | > 100 µM (inactive)
COC(=O)/C(C#N)=C1\CCC(OC)N1 (stereo not given) | > 100 µM (inactive) | > 100 µM (inactive) | > 100 µM (inactive) | > 100 µM (inactive) | – | > 100 µM (inactive) | > 100 µM (inactive) | > 100 µM (inactive) | > 100 µM (inactive) | > 100 µM (inactive) | – | > 100 µM (inactive) | > 100 µM (inactive) | – | > 100 µM (inactive) | > 100 µM (inactive) | > 100 µM (inactive) | – | > 100 µM (inactive) | > 100 µM (inactive)
COc1ccc2[nH]c3ccc4cc[n+](CCN5CCC(C6CCN(CC[n+]7ccc8ccc9[nH]c%10ccc(OC)cc%10c9c8c7)CC6)CC5)cc4c3c2c1 | 4.67 µM (inactive) | > 62.1 µM (inactive) | 9.12 µM (inactive) | 0.346 µM (active) | – | 0.262 µM (active) | 0.405 µM (active) | > 50 µM (inactive) | 7.29 µM (inactive) | – | 8.04 µM (inactive) | 1.88 µM (inactive) | 2.65 µM (inactive) | > 16.2 µM (inactive) | 1.81 µM (inactive) | 0.526 µM (active) | 0.409 µM (active) | 31 µM (inactive) | 0.333 µM (active) | –
CCOC(=O)/C(=C/c1cccc(Cl)c1)N(CC)CC | 43.3 µM (inactive) | – | – | 87.7 µM (inactive) | – | 37.4 µM (inactive) | 42.2 µM (inactive) | 27.7 µM (inactive) | 47.1 µM (inactive) | 49.2 µM (inactive) | – | 90.8 µM (inactive) | 73.5 µM (inactive) | > 100 µM (inactive) | 41.1 µM (inactive) | 57.3 µM (inactive) | 36.2 µM (inactive) | – | > 100 µM (inactive) | 46.7 µM (inactive)
Cn1cc(C(=O)c2ccccc2)cc(C(=O)c2ccccc2)c1=O | > 100 µM (inactive) | > 100 µM (inactive) | > 100 µM (inactive) | > 100 µM (inactive) | – | – | > 100 µM (inactive) | > 100 µM (inactive) | > 100 µM (inactive) | > 100 µM (inactive) | – | > 100 µM (inactive) | > 100 µM (inactive) | – | > 100 µM (inactive) | > 100 µM (inactive) | > 100 µM (inactive) | – | > 100 µM (inactive) | > 100 µM (inactive)
